Measured values reported in patent US20060069123A1, “Substituted dipiperidine CCR2 antagonists” (priority 2004, published 2006).
Like-named read-outs stand apart in the source and are kept apart here.

Key:
CCR2 = biological target: T1, CCR2 (Homo sapiens, UniProt P41597)
T1 sequence (P41597 1-360 isoform P41597-2): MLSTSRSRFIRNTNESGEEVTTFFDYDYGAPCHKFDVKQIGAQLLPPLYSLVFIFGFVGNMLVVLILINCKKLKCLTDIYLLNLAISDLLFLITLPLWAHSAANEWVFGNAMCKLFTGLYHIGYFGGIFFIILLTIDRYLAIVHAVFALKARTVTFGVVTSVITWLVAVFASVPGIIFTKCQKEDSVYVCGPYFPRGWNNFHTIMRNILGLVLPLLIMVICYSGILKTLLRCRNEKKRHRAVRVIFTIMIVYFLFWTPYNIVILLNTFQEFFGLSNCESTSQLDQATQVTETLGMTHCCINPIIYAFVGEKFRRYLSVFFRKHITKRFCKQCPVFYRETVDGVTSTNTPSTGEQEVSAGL

THP-1 cells [1] = system: THP-1 cells
THP-1 cells [2] = assay: MCP-1 Induced Chemotaxis in THP-1 Cells; assay type: cell-based; conditions: Homo sapiens; THP-1 cells, MCP-1 0.01 μg/mL, 3 hours; read-out: Inhibition of MCP-1 Induced Chemotaxis IC50
Protocol: MCP-1 Induced Chemotaxis in THP-1 Cells
MCP-1 induced chemotaxis was run in a 24-well chemotaxis chamber. MCP-1 (0.01 μg/mL) was added to the lower chamber and 100 μL of THP-1 cells (1×10^7 cell/mL) was added to the top chamber. Varying concentrations of test compound were added to the top and bottom chambers. Cells were allowed to chemotax for 3 hours at 37° C. and 5% CO2. An aliquot of the cells that had migrated to the bottom chamber was taken and counted then compared to vehicle.

[3] = Homo sapiens, THP-1, read-out: Inhibition of MCP-1 Induced Calcium Ion Influx IC50

OCC(C1CCN(C(=S)Nc2cccc(C(F)(F)F)c2)CC1)N1CCC(c2c[nH]c3ccccc23)CC1 (stereo not drawn) [Cpd 120, 4-{2-hydroxy-1-[4-(1H-indol-3-yl)-piperidin-1-yl]-ethyl}-piperidine-1-carbothioic acid (3-trifluoromethyl-phenyl)-amide]
IC50 (CCR2): 0.08 µM | IC50 (THP-1 cells [1]; [3]): 0.001 µM

O=C(C=Cc1cc(F)c(F)c(F)c1)N1CCC(C(CO)N2CCC(c3ccc(Cl)cc3)CC2)CC1 (stereo not drawn) [Cpd 246, (2E)-1-(4-{1-[4-(4-chloro-phenyl)-piperidin-1-yl]-2-hydroxy-ethyl}-piperidin-1-yl)-3-(3,4,5-trifluoro-phenyl)-propenone]
IC50 (CCR2): 0.07 µM | IC50 (THP-1 cells [1]; [3]): 0.02 µM

OCC(C1CCN(C(=S)Nc2ccc(Cl)c(Cl)c2)CC1)N1CCC(c2c[nH]c3ccccc23)CC1 (stereo not drawn) [Cpd 122, 4-{2-hydroxy-1-[4-(1H-indol-3-yl)-piperidin-1-yl]-ethyl}-piperidine-1-carbothioic acid (3,4-dichloro-phenyl)-amide]
IC50 (CCR2): 0.04 µM | IC50 (THP-1 cells [1]; [3]): 0.0008 µM

COc1ccc(C2CCN(C(CO)C3CCN(C(=O)C#Cc4cc(F)c(F)c(F)c4)CC3)CC2)cc1 (stereo not drawn) [Cpd 253, 1-(4-{2-hydroxy-1-[4-(4-methoxy-phenyl)-piperidin-1-yl]-ethyl}-piperidin-1-yl)-3-(3,4,5-trifluoro-phenyl)-propynone]
Inhibition of MCP-1 Binding, percent inhibition (CCR2; test concentration of 25 μM, IC50 not obtained): 42% | IC50 (THP-1 cells [1]; read-out: Inhibition of MCP-1 Induced Calcium Ion Influx IC50, THP-1 cells, 0.2 μM MCP-1, FLIPR): 3.9 µM

CCNC(=O)NCC(C1CCN(C(=O)/C=C/c2ccc(F)c(Br)c2)CC1)N1CCC(c2c[nH]c3ccccc23)CC1 (stereo not drawn) [Cpd 233]
IC50 (CCR2): 0.66 µM | IC50 (THP-1 cells [1]; [3]): 1.8 µM

COc1ccc(C2CCN(C(CO)C3CCN(C(=O)c4cc5cc(Cl)ccc5o4)CC3)CC2)cc1 (stereo not drawn) [Cpd 160, (5-chloro-benzofuran-2-yl)-(4-{2-hydroxy-1-[4-(4-methoxy-phenyl)-piperidin-1-yl]-ethyl}-piperidin-1-yl)-methanone]
inhibition at 25 µM (CCR2; read-out: Inhibition of MCP-1 Binding, percent inhibition): 56% | inhibition at 25 µM (THP-1 cells [1]; Homo sapiens, THP-1, read-out: Inhibition of MCP-1 Induced Calcium Ion Influx, percent inhibition): 33%

CC(=O)NCC(C1CCN(C(=O)/C=C/c2cccc(C(F)(F)F)c2)CC1)N1CCC(c2c[nH]c3ccccc23)CC1 (stereo not drawn) [Cpd 218]
IC50 (CCR2): 0.37 µM | IC50 (THP-1 cells [1]; [3]): 1.9 µM

O=C(O)C(C1CCN(C(=O)/C=C/c2cccc(Cl)c2)CC1)N1CCC(c2c[nH]c3ccccc23)CC1 (stereo not drawn) [Cpd 93, {1-[(2E)-3-(3-chloro-phenyl)-acryloyl]-piperidin-4-yl}-[4-(1H-indol-3-yl)-piperidin-1-yl]-acetic acid]
IC50 (CCR2): 0.004 µM | IC50 (THP-1 cells [2]): 0.02 µM

O=C(O)C(C1CCN(C(=O)Nc2cc(F)cc(F)c2)CC1)N1CCC(c2c[nH]c3ccccc23)CC1 (stereo not drawn) [Cpd 28, [1-(3,5-difluoro-phenylcarbamoyl)-piperidin-4-yl]-[4-(1H-indol-3-yl)-piperidin-1-yl]-acetic acid]
IC50 (CCR2): 0.1 µM | IC50 (THP-1 cells [2]): 0.43 µM

O=C(O)C(C1CCN(C(=O)/C=C/c2cc(F)cc(F)c2)CC1)N1CCC(c2c[nH]c3cc(F)ccc23)CC1 (stereo not drawn) [Cpd 24, {1-[(2E)-3-(3,5-difluoro-phenyl)-acryloyl]-piperidin-4-yl}-[4-(6-fluoro-1H-indol-3-yl)-piperidin-1-yl]-acetic acid]
IC50 (CCR2): 0.01 µM | IC50 (THP-1 cells [2]): 0.0007 µM

O=C(/C=C/c1cc(F)cc(F)c1)N1CCC(C(CO)N2CCC(c3nc4ccccc4[nH]3)CC2)CC1 (stereo not drawn) [Cpd 174, (2E)-1-(4-{1-[4-(1H-benzoimidazol-2-yl)-piperidin-1-yl]-2-hydroxy-ethyl}-piperidin-1-yl)-3-(3,5-difluoro-phenyl)-propenone]
IC50 (CCR2): 0.15 µM | IC50 (THP-1 cells [2]): 0.45 µM

O=C(O)C(C1CCN(C(=O)/C=C/c2cccc([N+](=O)[O-])c2)CC1)N1CCC(c2c[nH]c3ccccc23)CC1 (stereo not drawn) [Cpd 92, [4-(1H-indol-3-yl)-piperidin-1-yl]-{1-[(2E)-3-(3-nitro-phenyl)-acryloyl]-piperidin-4-yl}-acetic acid]
IC50 (CCR2): 0.04 µM | IC50 (THP-1 cells [2]): 0.1 µM

CC(=O)Nc1ccc2[nH]cc(C3CCN(C(C(=O)O)C4CCN(C(=O)/C=C/c5cc(F)c(F)c(F)c5)CC4)CC3)c2c1 (stereo not drawn) [Cpd 17, [4-(5-acetylamino-1H-indol-3-yl)-piperidin-1-yl]-{1-[(2E)-3-(3,4,5-trifluoro-phenyl)-acryloyl]-piperidin-4-yl}-acetic acid]
IC50 (CCR2): 0.16 µM | IC50 (THP-1 cells [2]): 0.02 µM

O=C(O)C(C1CCN(C(=O)/C=C/c2cccc(C(F)(F)F)c2)CC1)N1CCC(c2c[nH]c3ccccc23)CC1 (stereo not drawn) [Cpd 35, [4-(1H-indol-3-yl)-piperidin-1-yl]-{1-[(2E)-3-(3-trifluoromethyl-phenyl)-acryloyl]-piperidin-4-yl}-acetic acid]
IC50 (CCR2): 0.008 µM | IC50 (THP-1 cells [2]): 0.03 µM

O=C(O)C(C1CCN(C(=O)/C=C/c2ccc(Cl)c(Cl)c2)CC1)N1CCC(c2c[nH]c3cc(Cl)ccc23)CC1 (stereo not drawn) [Cpd 46, [4-(6-chloro-1H-indol-3-yl)-piperidin-1-yl]-{1-[(2E)-3-(3,4-dichloro-phenyl)-acryloyl]-piperidin-4-yl}-acetic acid]
IC50 (CCR2): 0.001 µM | IC50 (THP-1 cells [2]): 0.0002 µM

Cc1ccc(/C=C/C(=O)N2CCC(C(C(=O)O)N3CCC(c4c[nH]c5ccccc45)CC3)CC2)cc1F (stereo not drawn) [Cpd 74, {1-[(2E)-3-(3-fluoro-4-methyl-phenyl)-acryloyl]-piperidin-4-yl}-[4-(1H-indol-3-yl)-piperidin-1-yl]-acetic acid]
IC50 (CCR2): 0.005 µM | IC50 (THP-1 cells [2]): 0.006 µM

O=C(O)C(C1CCN(C(=O)Nc2ccc(F)c(C(F)(F)F)c2)CC1)N1CCC(c2c[nH]c3ccccc23)CC1 (stereo not drawn) [Cpd 58, [1-(4-fluoro-3-trifluoromethyl-phenylcarbamoyl)-piperidin-4-yl]-[4-(1H-indol-3-yl)-piperidin-1-yl]-acetic acid]
IC50 (CCR2): 0.09 µM | IC50 (THP-1 cells [2]): 0.13 µM

COc1ccc2[nH]cc(C3CCN(C(C(=O)O)C4CCN(C(=O)/C=C/c5ccc(Cl)c(Cl)c5)CC4)CC3)c2c1 (stereo not drawn) [Cpd 47, {1-[(2E)-3-(3,4-dichloro-phenyl)-acryloyl]-piperidin-4-yl}-[4-(5-methoxy-1H-indol-3-yl)-piperidin-1-yl]-acetic acid]
IC50 (CCR2): 0.01 µM | IC50 (THP-1 cells [2]): 0.0002 µM

CC(C)(C)OC(=O)Nc1ccc2[nH]cc(C3CCN(C(C(=O)O)C4CCN(C(=O)/C=C/c5cc(F)c(F)c(F)c5)CC4)CC3)c2c1 (stereo not drawn) [Cpd 81]
IC50 (CCR2): 0.03 µM | IC50 (THP-1 cells [2]): 0.03 µM

O=C(O)C(C1CCN(C(=O)/C=C/c2ccc(Cl)c(Cl)c2)CC1)N1CCC(c2c[nH]c3cc(F)ccc23)CC1 (stereo not drawn) [Cpd 39, {1-[(2E)-3-(3,4-dichloro-phenyl)-acryloyl]-piperidin-4-yl}-[4-(6-fluoro-1H-indol-3-yl)-piperidin-1-yl]-acetic acid]
IC50 (CCR2): 0.002 µM | IC50 (THP-1 cells [2]): 0.0019 µM

O=C(O)C(C1CCN(C(=O)Nc2cccc(Br)c2)CC1)N1CCC(c2c[nH]c3ccccc23)CC1 (stereo not drawn) [Cpd 85, [1-(3-bromo-phenylcarbamoyl)-piperidin-4-yl]-[4-(1H-indol-3-yl)-piperidin-1-yl]-acetic acid]
IC50 (CCR2): 0.17 µM | IC50 (THP-1 cells [2]): 0.19 µM

O=C(O)C(C1CCN(C(=O)/C=C/c2ccc(F)cc2)CC1)N1CCC(c2c[nH]c3ccccc23)CC1 (stereo not drawn) [Cpd 77, {1-[(2E)-3-(4-fluoro-phenyl)-acryloyl]-piperidin-4-yl}-[4-(1H-indol-3-yl)-piperidin-1-yl]-acetic acid]
IC50 (CCR2): 0.07 µM | IC50 (THP-1 cells [2]): 0.06 µM

O=C(O)C(C1CCN(C(=O)/C=C/c2ccc(F)c(Cl)c2)CC1)N1CCC(c2c[nH]c3ccccc23)CC1 (stereo not drawn) [Cpd 76, {1-[(2E)-3-(3-chloro-4-fluoro-phenyl)-acryloyl]-piperidin-4-yl}-[4-(1H-indol-3-yl)-piperidin-1-yl]-acetic acid]
IC50 (CCR2): 0.002 µM | IC50 (THP-1 cells [2]): 0.01 µM

COc1ccc2[nH]cc(C3CCN(C(C(=O)O)C4CCN(C(=O)Nc5ccc(Cl)c(Cl)c5)CC4)CC3)c2c1 (stereo not drawn) [Cpd 94, [1-(3,4-dichloro-phenylcarbamoyl)-piperidin-4-yl]-[4-(5-methoxy-1H-indol-3-yl)-piperidin-1-yl]-acetic acid]
IC50 (CCR2): 0.01 µM | IC50 (THP-1 cells [2]): 0.01 µM

O=C(O)C(C1CCN(C(=O)Nc2ccc(Cl)c(C(F)(F)F)c2)CC1)N1CCC(c2c[nH]c3ccccc23)CC1 (stereo not drawn) [Cpd 57, [1-(4-chloro-3-trifluoromethyl-phenylcarbamoyl)-piperidin-4-yl]-[4-(1H-indol-3-yl)-piperidin-1-yl]-acetic acid]
IC50 (CCR2): 0.02 µM | IC50 (THP-1 cells [2]): 0.003 µM

O=C(O)C(C1CCN(C(=O)Nc2cccc(Cl)c2)CC1)N1CCC(c2c[nH]c3ccccc23)CC1 (stereo not drawn) [Cpd 86, [1-(3-chloro-phenylcarbamoyl)-piperidin-4-yl]-[4-(1H-indol-3-yl)-piperidin-1-yl]-acetic acid]
IC50 (CCR2): 0.21 µM | IC50 (THP-1 cells [2]): 0.28 µM

Cc1ccc(NC(=O)N2CCC(C(C(=O)O)N3CCC(c4c[nH]c5ccccc45)CC3)CC2)cc1Cl (stereo not drawn) [Cpd 49, [1-(3-chloro-4-methyl-phenylcarbamoyl)-piperidin-4-yl]-[4-(1H-indol-3-yl)-piperidin-1-yl]-acetic acid]
IC50 (CCR2): 0.025 µM | IC50 (THP-1 cells [2]): 0.004 µM
